Experimental data: patent publication US7786042B2, “Fluridone as an anti-inflammatory agent” (Universita' Degli Studi Di Genova, priority 2005, dated 2010)
Entries after “also recorded” stand apart in the source; their conditions may differ.

How the values were obtained:
[1] = tested on: human granulocytes; test: Intracellular calcium [Ca2+]i in granulocytes; format: cell-based; details: 10 min after addition of 10 μM ABA; basal value 50±2 nM; n=4
Method: Granlocytes were isolated by density gradient centrifugation from the peripheral blood of healthy donors, after informed consent. Contaminating erythrocytes were removed by hypotonic lysis. […] The increase of [cADPR]i in turn induces a progressive rise of [Ca^2+]i, from a basal value of 50±2 nM to 170±25 nM after 10 min from the addition of 10 μM ABA (n=4). […] The increase of the [Ca^2+]i induced by ABA in granulocytes is in turn responsible for activation of several functional activities typical of these cells. The functional effects induced by ABA (at concentrations ranging between 0.2 and 20 μM) in granulocytes include stimulation of the production of reactive oxygen species (ROS), measured through the cytochrome c […] (FIG. 2A), and of nitric oxide (NO), measured as accumulation of nitrite, the end-product of NO […] (FIG. 2B).

[2] = tested on: murine microglia cell line N9; test: Chemokinesis of murine microglia N9; format: cell-based; details: ABA 0.2-20 μM
Method: Assays were performed using 96-well ChemoTx system microplates with a 3-μm pore size polycarbonate filter (NeuroProbe Inc., Gaithersburg, USA). Cells (granulocytes or murine microglia) were resuspended at 10^7/ml in HBSS, PBS and 5% albumin, 39:16:1 (chemotaxis buffer, CB). In order to evaluate the chemoattractant effect of ABA, hormone concentrations ranging from 50 nM to 20 μM were added in CB in the bottom wells and 25 μl cell suspensions were placed on top of the filter. To evaluate a possible stimulatory effect of ABA on spontaneous cell movements (chemokinesis), cells were pre-incubated with or without 20 μM ABA, then washed and placed on top of the filter, in contact with CB. Plates were incubated at 37° C. for 60 min and transmigrated cells were recovered and quantified by fluorimetric assay with Cytox Green. The number of transmigrated cells was calculated by comparison of the measured fluorescence with that of a standard curve, obtained by directly placing a serial dilution of cells in the bottom wells. The results of the chemotaxis experiments are expressed as “chemotaxis index” (CI): CI=number of cells migrated towards chemoattractant/number of cells migrated towards CB
The results of the chemokinesis experiments are expressed as number of ABA pre-treated cells migrated through the filter compared to control cells (not treated with ABA).

CC1=CC(=O)CC(C)(C)[C@@]1(O)/C=C/C(C)=C\C(=O)O (racemic) [ABA, (±)-cis, trans ABA]
[Ca2+]i [1]: 170 ± 25 nM | chemokinesis [2]: increase; also recorded: ↑chemokinesis
